We go through 24 compounds from US9593108B2, “Compounds and methods for antiviral treatment” (PTC Therapeutics, Inc., priority 2009, dated 2017).

Where only a bound is given, the exact number is not on record here.

Data set [1] concerns HCV replicon RNA (GenBank Accession No. AJ242654). As to the kind of experiment: HCV Replicon Assay (replicon RNA reduction and/or Fluc reporter signal). It counts as cell-based, Hepatitis C virus. The settings on record: Hepatitis C virus, 72 h, replicon-containing cells cultured with test compound for up to 3 days. Summed up:
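Bicistronic replicon-containing cells cultured with compound for up to 3 days, with interferon as positive control. Inhibition quantified by replicon RNA reduction and/or Fluc reporter signal; IC50 values generally derived from replicon RNA reduction.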
In general terms: In antiviral work, replicon cells carry a viral genome segment that copies itself.

`CC(C)NS(=O)(=O)c1ccc(-c2c(C#N)c3cc(C(F)F)cnc3n2C2CCC2)nc1` [Cpd 455, 6-[3-cyano-1-cyclobutyl-5-(difluoromethyl)-1H-pyrrolo[2,3-b]pyridin-2-yl]-N-(propan-2-yl)pyridine-3-sulfonamide] yielded a melting point of 189 to 190 °C. This compound also had a 50% inhibitory concentration (IC50) in data set [1] below 500 nM.

As to `C[C@H](NS(=O)(=O)c1ccc(-c2c(C#N)c3cc(C(F)F)cnc3n2C2CCC2)nc1)C1CC1` [Cpd 458, 6-[3-cyano-1-cyclobutyl-5-(difluoromethyl)-1H-pyrrolo[2,3-b]pyridin-2-yl]-N-[(1S)-1-cyclopropylethyl]pyridine-3-sulfonamide], the melting point lay in the range of 164 to 165 °C. The concentration for half-maximal inhibition (IC50) in data set [1] is below 500 nM.

Compound `CC(C)S(=O)(=O)Nc1ccc(-c2c(C#N)c3cc(C(F)F)cnc3n2C2CCC2)cc1` [Cpd 459, N-{4-[3-cyano-1-cyclobutyl-5-(difluoromethyl)-1H-pyrrolo[2,3-b]pyridin-2-yl]phenyl}propane-2-sulfonamide] returned a melting point of 179 to 180 °C. In data set [1], this compound registered an IC50 below 500 nM.

For `N#Cc1c(-c2ccc(NS(=O)(=O)C3CC3)cc2)n(C2CCC2)c2ncc(C(F)F)cc12` [Cpd 460, N-{4-[3-cyano-1-cyclobutyl-5-(difluoromethyl)-1H-pyrrolo[2,3-b]pyridin-2-yl]phenyl}cyclopropanesulfonamide], the melting point lay in the range of 193 to 195 °C. This compound also returned an IC50 in data set [1] below 500 nM.

In turn, `C[C@H](NS(=O)(=O)c1ccc(-c2c(C#N)c3cc(F)cnc3n2-c2cc(F)ccn2)nc1)C(F)(F)F` [Cpd 461, 6-[3-cyano-5-fluoro-1-(4-fluoropyridin-2-yl)-1H-pyrrolo[2,3-b]pyridin-2-yl]-N-[(2S)-1,1,1-trifluoropropan-2-yl]pyridine-3-sulfonamide] came in with a melting point of 186 to 188 °C. Further, the IC50 in data set [1] is below 500 nM.

`C[C@H](NS(=O)(=O)c1ccc(-c2c(C#N)c3cc(F)cnc3n2-c2ncc(F)cn2)nc1)C(F)(F)F` [Cpd 462, 6-[3-cyano-5-fluoro-1-(5-fluoropyrimidin-2-yl)-1H-pyrrolo[2,3-b]pyridin-2-yl]-N-[(2S)-1,1,1-trifluoropropan-2-yl]pyridine-3-sulfonamide] returned a melting point of 180 to 182 °C. This compound also gave a half-inhibitory concentration (IC50) in data set [1] below 500 nM.

Consider `Cc1cnc2c(C#N)c(-c3ccc(S(=O)(=O)N[C@@H](C)C(F)(F)F)cn3)n(-c3cnccn3)c2c1` [Cpd 463, 6-[3-cyano-6-methyl-1-(pyrazin-2-yl)-1H-pyrrolo[3,2-b]pyridin-2-yl]-N-[(2S)-1,1,1-trifluoropropan-2-yl]pyridine-3-sulfonamide], for which the melting point was in the range of 288 to 289 °C. Further, the half-maximal inhibitory concentration (IC50) in data set [1] is below 500 nM.

Compound `Cc1cnc2c(C#N)c(-c3ccc(S(=O)(=O)N[C@@H](C)C(F)(F)F)cn3)n(-c3cncnc3)c2c1` [Cpd 464, 6-[3-cyano-6-methyl-1-(pyrimidin-5-yl)-1H-pyrrolo[3,2-b]pyridin-2-yl]-N-[(2S)-1,1,1-trifluoropropan-2-yl]pyridine-3-sulfonamide] registered a melting point of 229 to 230 °C. Further, the concentration for half-maximal inhibition (IC50) in data set [1] lay within 2000 to 5000 nM.

In the case of `Cc1cnc2c(C#N)c(-c3ccc(S(=O)(=O)N[C@@H](C)C(F)(F)F)cn3)n(-c3ccccn3)c2c1` [Cpd 465, 6-[3-cyano-6-methyl-1-(pyridin-2-yl)-1H-pyrrolo[3,2-b]pyridin-2-yl]-N-[(2S)-1,1,1-trifluoropropan-2-yl]pyridine-3-sulfonamide], the melting point lay within 242 to 244 °C. Also, the concentration for half-maximal inhibition (IC50) in data set [1] was below 500 nM.

For `Cc1cnc2c(C#N)c(-c3ccc(S(=O)(=O)N[C@@H](C)C(F)(F)F)cn3)n(-c3cccnc3)c2c1` [Cpd 466, 6-[3-cyano-6-methyl-1-(pyridin-3-yl)-1H-pyrrolo[3,2-b]pyridin-2-yl]-N-[(2S)-1,1,1-trifluoropropan-2-yl]pyridine-3-sulfonamide], the melting point lay in the range of 278 to 279 °C. Also, the IC50 in data set [1] is below 500 nM.

On to `Cc1cnc2c(C#N)c(-c3ccc(S(=O)(=O)N[C@@H](C)C(F)(F)F)cn3)n(-c3ccc(F)cn3)c2c1` [Cpd 467, 6-[3-cyano-1-(5-fluoropyridin-2-yl)-6-methyl-1H-pyrrolo[3,2-b]pyridin-2-yl]-N-[(2S)-1,1,1-trifluoropropan-2-yl]pyridine-3-sulfonamide], for which the melting point fell in the range of 263 to 265 °C. The compound also returned a half-maximal inhibitory concentration (IC50) in data set [1] below 500 nM.

`Cc1cnc2c(C#N)c(-c3ccc(S(=O)(=O)N[C@@H](C)C(F)(F)F)cn3)n(-c3cscn3)c2c1` [Cpd 468, 6-[3-cyano-6-methyl-1-(1,3-thiazol-4-yl)-1H-pyrrolo[3,2-b]pyridin-2-yl]-N-[(2S)-1,1,1-trifluoropropan-2-yl]pyridine-3-sulfonamide] displayed a melting point of 244 to 245 °C. For the same compound, in data set [1], the IC50 was below 500 nM.

`C[C@H](NS(=O)(=O)c1ccc(-c2c(C(N)=O)c3cc(C(F)F)cnc3n2C2CCC2)nc1)C(F)(F)F` [Cpd 469, 1-cyclobutyl-5-(difluoromethyl)-2-(5-{[(2S)-1,1,1-trifluoropropan-2-yl]sulfamoyl}pyridin-2-yl)-1H-pyrrolo[2,3-b]pyridine-3-carboxamide]: the melting point lay within 206 to 208 °C. This compound yielded an IC50 in data set [1] below 500 nM.

Turning to `C[C@H](NS(=O)(=O)c1cnc(-c2c(C(N)=O)c3cc(C(F)F)cnc3n2C2CCC2)nc1)C(F)(F)F` [Cpd 470, 1-cyclobutyl-5-(difluoromethyl)-2-(5-{[(2S)-1,1,1-trifluoropropan-2-yl]sulfamoyl}pyrimidin-2-yl)-1H-pyrrolo[2,3-b]pyridine-3-carboxamide], the melting point was in the range of 199 to 201 °C. Also, in data set [1], the IC50 is below 500 nM.

Regarding `CC(C)(NS(=O)(=O)c1ccc(-c2c(C(N)=O)c3cc(C(F)F)cnc3n2C2CCC2)nc1)C(F)(F)F` [Cpd 471, 1-cyclobutyl-5-(difluoromethyl)-2-{5-[(1,1,1-trifluoro-2-methylpropan-2-yl)sulfamoyl]pyridin-2-yl}-1H-pyrrolo[2,3-b]pyridine-3-carboxamide], the melting point was 205 to 207 °C. In data set [1], this compound registered a concentration for half-maximal inhibition (IC50) below 500 nM.

Take `NC(=O)c1c(-c2ccc(S(=O)(=O)NC3(C(F)(F)F)CC3)cn2)n(C2CCC2)c2ncc(C(F)F)cc12` [Cpd 472, 1-cyclobutyl-5-(difluoromethyl)-2-(5-{[1-(trifluoromethyl)cyclopropyl]sulfamoyl}pyridin-2-yl)-1H-pyrrolo[2,3-b]pyridine-3-carboxamide]: the melting point was in the range of 210 to 212 °C. In data set [1], this compound came in with a half-maximal inhibitory concentration (IC50) below 500 nM.

Regarding `CCc1cnc2c(c1)c(C#N)c(-c1ccc(S(=O)(=O)N[C@@H](C)C(F)(F)F)cn1)n2-c1ncc(F)cn1` [Cpd 473, 6-[3-cyano-5-ethyl-1-(5-fluoropyrimidin-2-yl)-1H-pyrrolo[2,3-b]pyridin-2-yl]-N-[(2S)-1,1,1-trifluoropropan-2-yl]pyridine-3-sulfonamide], the melting point was in the range of 175 to 177 °C. Moreover, the 50% inhibitory concentration (IC50) in data set [1] was below 500 nM.

For the compound `CCc1cnc2c(c1)c(C#N)c(-c1ccc(S(=O)(=O)N[C@@H](C)C(F)(F)F)cn1)n2-c1ccc(F)cn1` [Cpd 474, 6-[3-cyano-5-ethyl-1-(5-fluoropyridin-2-yl)-1H-pyrrolo[2,3-b]pyridin-2-yl]-N-[(2S)-1,1,1-trifluoropropan-2-yl]pyridine-3-sulfonamide], the melting point lay in the range of 175 to 177 °C. The same compound gave an IC50 in data set [1] below 500 nM.

In the case of `Cc1cnc2c(C#N)c(-c3ccc(S(=O)(=O)N[C@@H](C)C(F)(F)F)cn3)n(-c3ncccn3)c2c1` [Cpd 475, 6-[3-cyano-6-methyl-1-(pyrimidin-2-yl)-1H-pyrrolo[3,2-b]pyridin-2-yl]-N-[(2S)-1,1,1-trifluoropropan-2-yl]pyridine-3-sulfonamide], the melting point fell in the range of 226 to 228 °C. Moreover, in data set [1], the half-inhibitory concentration (IC50) was below 500 nM.

`Cc1cnc2c(C#N)c(-c3ccc(S(=O)(=O)N[C@@H](C)C(F)(F)F)cn3)n(-c3ccccc3)c2c1` [Cpd 476, 6-(3-cyano-6-methyl-1-phenyl-1H-pyrrolo[3,2-b]pyridin-2-yl)-N-[(2S)-1,1,1-trifluoropropan-2-yl]pyridine-3-sulfonamide] showed a melting point of 245 to 247 °C. Also, the IC50 in data set [1] was below 500 nM.

For `Cc1cnc2c(C#N)c(-c3ccc(S(=O)(=O)N[C@@H](C)C(F)(F)F)cn3)n(-c3nccs3)c2c1` [Cpd 477, 6-[3-cyano-6-methyl-1-(1,3-thiazol-2-yl)-1H-pyrrolo[3,2-b]pyridin-2-yl]-N-[(2S)-1,1,1-trifluoropropan-2-yl]pyridine-3-sulfonamide], the melting point fell in the range of 230 to 232 °C. In data set [1], this compound gave an IC50 below 500 nM.

`Cc1cnc2c(C#N)c(-c3ccc(S(=O)(=O)N[C@@H](C)C(F)(F)F)cn3)n(-c3cncs3)c2c1` [Cpd 478, 6-[3-cyano-6-methyl-1-(1,3-thiazol-5-yl)-1H-pyrrolo[3,2-b]pyridin-2-yl]-N-[(2S)-1,1,1-trifluoropropan-2-yl]pyridine-3-sulfonamide]: the melting point lay in the range of 273 to 275 °C. In data set [1], this compound registered a half-inhibitory concentration (IC50) of 500 to 2000 nM.

Turning to `Cc1cnc2c(C#N)c(-c3ccc(S(=O)(=O)N[C@@H](C)C(F)(F)F)cn3)n(-c3cc(C(F)(F)F)ccn3)c2c1` [Cpd 479, 6-{3-cyano-6-methyl-1-[4-(trifluoromethyl)pyridin-2-yl]-1H-pyrrolo[3,2-b]pyridin-2-yl}-N-[(2S)-1,1,1-trifluoropropan-2-yl]pyridine-3-sulfonamide], the melting point is 245 to 246 °C. The same compound gave an IC50 in data set [1] of 500 to 2000 nM.

Take `Cc1cnc2c(C#N)c(-c3ccc(S(=O)(=O)N[C@@H](C)C(F)(F)F)cn3)n(-c3ccnnc3)c2c1` [Cpd 480, 6-[3-cyano-6-methyl-1-(pyridazin-4-yl)-1H-pyrrolo[3,2-b]pyridin-2-yl]-N-[(2S)-1,1,1-trifluoropropan-2-yl]pyridine-3-sulfonamide]: the melting point lay in the range of 283 to 285 °C. The compound further had an IC50 in data set [1] of 2000 to 5000 nM.

By melting point is commonly meant the temperature of the solid-liquid transition. The term IC50 denotes the midpoint of a concentration-inhibition curve.
